Patent publication US20240158797A1, “ANTISENSE OLIGONUCLEOTIDES FOR THEIR USE IN AN ANTI-CANCER TREATMENT” (UNIVERSITÉ GRENOBLE ALPES, priority 2021, published 2024)

Tests used:
[1] = tested on: 6-O-methylguanine DNA methyltransferase (MGMT) protein; assay: Test of the expression level of the MGMT protein (western blot) in T98G cells; assay type: cell-based; conditions: for levels of MGMT protein: T98G glioma cells, 100 μM ASO in lipofectamine 48 h, western blot vs ASO Scr, at least four repetitions
Procedure: (§1) The U87, T98G and U251 glioma cell lines are cultured in DMEM medium («Dulbecco/Vogt modified Eagle's minimal essential medium» supplemented with 10% fetal calf serum and 1% penicillin and streptomycin.
(§2) When the cultures are at 60% confluence, they are transfected with 100 μM of antisense oligonucleotide (ASO) RG6042 (of sequence SEQ ID NO: 1), or PH1 (SEQ ID NO: 2) or PH2 (SEQ ID NO: 3) or PH3 (SEQ ID NO: 4) or Scr in lipofectamine for 48 h. The ASO Scr (for «scramble» is an ASO serving as a control whose sequence SEQ ID NO: 5 is <A*CATG*>A*C*C*G*C*A*C*T*C*A*<CTAT*A> where * is a phosphorothioate bond and the bases between the signs < and > are 2′-O-methoxyethyl RNA.
Cells transfected with ASO RG6042, ASO Scr, or treated with lipofectamine alone (for control), are harvested for the test of the expression level of the MGMT protein.
The protocol is the same as for the previously cited test of the expression level of the HTT protein with the only change being the use of anti-MGMT antibodies (#2739, from the Cell signaling Technology® brand) in incubation to reveal the MGMT protein. The vinculin is also used here as a load control.
(§3) FIG. 4 illustrates in A the result of the western blot produced from cells of the T98G cell line having been transfected with ASO RG6042, with ASO Scr or treated with lipofectamine alone (Ctrl) and, in B, the quantification of MGMT protein levels obtained by western blot after at least 4 repetitions of the experiment presented in A.
(§4) T98G cells transfected with ASO RG6042, or ASO PH1, or ASO PH2 or ASO PH3, or ASO Scr, are harvested for testing the expression level of HTT proteins and MGMT.
(§5) The protocol is the same as for the previously cited tests for the expression level of the HTT protein and the expression level of the MGMT protein. The vinculin is also used here as a load control.
(§6) FIG. 6 illustrates the quantification of the protein levels of HTT in A and of MGMT in B, obtained by western blot after at least four repetitions of the experiment presented in FIG. 5. The statistics were carried out using the Kruskal-wallis test followed by Dunn's multiple comparison test, error bars, SEM, *p<0.05, **p<0.001.

huntingtin (HTT) protein = assay: Test of the expression level of the HTT protein in T98G cells transfected with ASO RG6042, PH1, PH2, PH3 or Scr; assay type: cell-based; conditions: T98G glioma cells, 100 μM ASO in lipofectamine 48 h; western blot vs ASO Scr, at least four repetitions
Procedure: as §1, §2
The cells are rinsed with phosphate-buffered saline (PBS) and then lysed in RIPA-type lysis buffer supplemented with protease and phosphatase inhibitors. The proteins solubilized in the buffer are harvested after centrifugation, denatured in Laemmli loading buffer and deposited on polyacrylamide gel. After migration, the proteins are transferred onto a polyvinylidine difluoride (PVDF) membrane. […] The vinculin is used as a load control.
as §4, §5
FIG. 5 illustrates the result of the western blot produced from cells of the T98G cell line having been transfected with ASO RG6042, with ASO PH1, with ASO PH2, with ASO PH3, or with ASO Scr.
as §6

T98G cell line [2] = assay: Sensitivity test to the alkylating agent Lomustine (MTT), T98G line; assay type: cell-based
Procedure: as §1, §2
(§7) The cells transfected with ASO RG6042 or ASO Scr are harvested for the sensitivity test to the alkylating agent Lomustine.
(§8) The Lomustine was prepared in the form of a stock solution of 50 mg/ml (214 mM) in pure ethanol. The solution was filtered to sterilize it (0.2 μm pore filter) and frozen at −20° C. until further use. […]
FIG. 12 illustrates in A a curve showing the percentage of live cells of the T98G line transfected with ASO RG6042 or Scr as a function of the received dose of Lomustine and, in B, the mean of the concentrations of Lomustine measured at the LD50 in 4 different MTT assays for T98G cell line transfected with ASO RG6042 or Scr.

U87 cell line = assay: Temozolomide (TMZ) sensitivity test (MTT), U87 line; assay type: cell-based; conditions: U87 cultures, RG6042 vs control
Procedure: as §1
as §2, with “RNA. […]” for “RNA.”
(§9) The yellow probe of MTT, 3-(4,5-Dimethyl-2-thiazolyl)-2,5-diphenyl-2H-tetrazolium bromide, is then added at a working concentration of 0.5 mg·ml^−1 to each well. […] The optical density (OD) of the contents of each well is then analyzed with a spectrophotometer at wavelengths comprised between 490 nm and 570 nm. […]
(§10) FIG. 9 illustrates in A a curve showing the percentage of living cells of the U87 line transfected with ASO RG6042 or treated with lipofectamine alone (Ctrl) as a function of the received dose of TMZ and, in B, the averages TMZ concentrations measured at the LD50 in 4 different MTT tests for cells of the U251 line transfected with ASO RG6042 or treated with lipofectamine alone (Ctrl).

U251 cell line [3] = assay: Sensitivity test to the alkylating agent Lomustine (MTT), U251 line; assay type: cell-based
Procedure: as §1, §2, §7, §8
FIG. 11 illustrates in A a curve showing the percentage of living cells of the U251 line transfected with ASO RG6042 or Scr as a function of the dose of Lomustine received and, in B, the mean of the concentrations of Lomustine measured at the LD50 in 4 different MTT assays for U251 cell line transfected with ASO RG6042 or Scr.

U251 cell line [4] = assay: Temozolomide (TMZ) sensitivity test (MTT), U251 line; assay type: cell-based; conditions: U251 cultures, RG6042 vs control
Procedure: as §1
as §2, with “RNA. […]” for “RNA.”
as §9
as §10, with “8” for “9”, “live” for “living”, “U251” for “U87”, “average” for “averages”

HTT = conditions: patients with Huntington's disease, after 4 intrathecal injections (Tabrizi et al. 2019); cited from earlier work
T98G cell line [5] = assay: Temozolomide (TMZ) sensitivity test (MTT), T98G line; assay type: cell-based; conditions: T98G cultures, RG6042 vs control
Procedure: as §1
as §2, with “RNA. […]” for “RNA.”
as §9
as §10, with “FIG. 10” for “FIG. 9”, “the T98G” for “the U87”, “the average” for “the averages”, “in 6” for “in 4”, “the T98G” for “the U251”

huntingtin protein (HTT) = assay: Huntingtin (HTT) protein expression level test (western blot) in transfected glioma cells; assay type: cell-based; conditions: glioma cells (U251, U87, T98G) transfected with 100 μM ASO in lipofectamine for 48 h; western blot vs ASO Scr / lipofectamine alone
Procedure: as §1
as §2, with “RNA. […]” for “RNA.”
FIG. 1 illustrates in A the results of the western blot carried out from cells of the U251 cell line having been transfected with ASO RG6042, with the ASO Scr or simply treated with lipofectamine alone (Ctrl for control), and, in B, the quantification of HTT protein levels obtained by western blot after 4 repetitions of the experiment presented in A.
as §3, with “FIG. 2” for “FIG. 4”, “the U87” for “the T98G”, “alone (Ctrl),” for “alone (Ctrl)”, “of HTT” for “of MGMT”, “least 3” for “least 4”, “A. […]” for “A.”

Row | Substance | levels of MGMT protein [1] | levels of HTT protein (huntingtin (HTT) protein) | sensitization to the alkylating agent Lomustine (T98G cell line [2]; T98G cells) | reduction in the LD50 of Lomustine (T98G cell line [2]; T98G cultures, RG6042 vs Scr) | reduction in the LD50 at the TMZ (U87 cell line) | sensitization to the alkylating agent Lomustine (U251 cell line [3]; U251 cells) | reduction in the LD50 of Lomustine (U251 cell line [3]; U251 cultures, RG6042 vs Scr) | reduction in the LD50 at the TMZ (U251 cell line [4]) | MGMT levels ([1]; T98G cells transfected with 100 μM ASO in lipofectamine for 48 h, western blot vs ASO Scr / lipofectamine alone) | HTT levels in the cerebrospinal fluid (HTT) | reduction in the LD50 at the TMZ (T98G cell line [5]) | HTT protein levels (huntingtin protein (HTT))
1 | ASO PH1: antisense oligonucleotide of sequence SEQ ID NO: 2 reducing HTT and MGMT levels (antisense TCTCTATTGCACATTCCAAG; listed as DNA, chemistry not given here) | significantly reduce | significantly reduce | – | – | – | – | – | – | – | – | – | –
2 | ASO PH2: antisense oligonucleotide of sequence SEQ ID NO: 3 reducing HTT and MGMT levels (antisense CTCGACTAAAGCAGGATTTC; listed as DNA, chemistry not given here) | significantly reduce | significantly reduce | – | – | – | – | – | – | – | – | – | –
3 | ASO PH3: antisense oligonucleotide of sequence SEQ ID NO: 4 reducing HTT and MGMT levels (antisense CCTGCATCAGCTTTATTTGT; listed as DNA, chemistry not given here) | significantly reduce | significantly reduce | – | – | – | – | – | – | – | – | – | –
4 | ASO RG6042: antisense oligonucleotide of sequence SEQ ID NO: 1 targeting huntingtin mRNA; sequence from literature, clinical trials in Huntington's disease (antisense CTCAGTAACATTGACACCAC; listed as DNA, chemistry not given here) | significantly reduce | significantly reduce | sensitizes | 47% | 32% | sensitizes | 41% | 40% | significantly reduces | decreased | 45% | significantly reduces
